Literature values as cited in PMC11345841, “Exploring 2-Sulfonylpyrimidine Warheads as Acrylamide Surrogates for Targeted Covalent Inhibition: A BTK Story” (Journal of Medicinal Chemistry, 2024).
Read-outs that look alike come from different tables or passages of the source.

Test system: 468 human kinases
Conditions: cited from earlier work; for %Control: @1000nM, ref Buhimschi et al. 2018; for Percent of Control: ref Buhimschi/Crews

C=CC(=O)N1CCC[C@@H](n2nc(-c3ccc(Oc4ccccc4)cc3)c3c(N)ncnc32)C1 [Compound 1g, Ibrutinib, reference compound]
number of kinases with ≥90 inhibition belonging to the TK family (including BTK) (1 μM): 36 kinases | number of kinases with ≥90 inhibition out of 468 (1 μM): 39 kinases | %Control (ABL1(E255K)-phosphorylated): 71% | %Control (ABL1(F317I)-nonphosphorylated): 30% | %Control (ABL1(F317L)-nonphosphorylated): 25% | %Control (ABL1(F317L)-phosphorylated): 49% | %Control (ABL1(H396P)-nonphosphorylated): 18% | %Control (ABL1(Q252H)-nonphosphorylated): 6.4% | %Control (ABL1(Q252H)-phosphorylated): 67% | %Control (ABL1(T315I)-nonphosphorylated): 100% | %Control (ABL1-nonphosphorylated): 9% | %Control (ABL1-phosphorylated): 69% | %Control (ABL2): 43% | %Control (ALK(C1156Y)): 91% | %Control (ALK(L1196M)): 96% | %Control (BMX): 38% | %Control (BRK): 1.4% | %Control (BTK): 0% | %Control (CSK): 2.4% | %Control (DDR2): 100% | %Control (EGFR(E746-A750del)): 5.1% | %Control (EGFR(G719C)): 0.35% | %Control (EGFR(G719S)): 0.45% | %Control (EGFR(L747-E749del, A750P)): 0.3% | %Control (EGFR(L747-S752del, P753S)): 12% | %Control (EGFR(L747-T751del,Sins)): 1.4% | %Control (EGFR(L858R)): 1.4% | %Control (EGFR(L858R,T790M)): 6.9% | %Control (EGFR(L861Q)): 0.1% | %Control (EGFR(S752-I759del)): 0% | %Control (EGFR(T790M)): 0.15% | %Control (EGFR): 0% | %Control (EPHA2): 96% | %Control (EPHA5): 100% | %Control (EPHA7): 100% | %Control (EPHA8): 78% | %Control (EPHB2): 100% | %Control (EPHB3): 89% | %Control (EPHB4): 100% | %Control (EPHB6): 8.6% | %Control (ERBB2): 0% | %Control (ERBB3): 0% | %Control (FAK): 93% | %Control (FER): 95% | %Control (FES): 100% | %Control (FGFR1): 42% | %Control (FGFR2): 42% | %Control (FGFR3(G697C)): 35% | %Control (FGFR3): 45% | %Control (FGFR4): 100% | %Control (FGR): 10% | %Control (FLT3(D835H)): 18% | %Control (FLT3(D835V)): 1.9% | %Control (FLT3(D835Y)): 44% | %Control (FLT3(K663Q)): 38% | %Control (FLT3(N841I)): 31% | %Control (FLT3(R834Q)): 54% | %Control (FLT3-autoinhibited): 94% | %Control (FLT3): 26% | %Control (FLT4): 38% | %Control (FRK): 11% | %Control (FYN): 5.3% | %Control (HCK): 0.3% | %Control (IGF1R): 100% | %Control (INSR): 87% | %Control (INSRR): 96% | %Control (ITK): 6.8% | %Control (JAK1(JH1domain-catalytic)): 100% | %Control (JAK1(JH2domain-pseudokinase)): 91% | %Control (JAK2(JH1domain-catalytic)): 87% | %Control (JAK3(JH1domain-catalytic)): 0% | %Control (KIT(A829P)): 21% | %Control (KIT(D816H)): 78% | %Control (KIT(L576P)): 42% | %Control (KIT(V559D)): 31% | %Control (KIT(V559D,T670I)): 94% | %Control (KIT(V559D,V654A)): 91% | %Control (KIT): 57% | %Control (LCK): 0.2% | %Control (LYN): 9.5% | %Control (MERTK): 74% | %Control (MET(M1250T)): 56% | %Control (MET(Y1235D)): 87% | %Control (PDGFRA): 48% | %Control (PDGFRB): 35% | %Control (RET(M918T)): 14% | %Control (RET(V804M)): 72% | %Control (RET): 9.3% | %Control (ROS1): 97% | %Control (SRC): 3.2% | %Control (SYK): 91% | %Control (TEC): 1.9% | %Control (TIE1): 61% | %Control (TIE2): 58% | %Control (TNK1): 23% | %Control (TNK2): 35% | %Control (TRKB): 82% | %Control (TXK): 3.8% | %Control (TYK2(JH1domain-catalytic)): 89% | %Control (TYRO3): 96% | %Control (YES): 2.6% | %Control (ZAP70): 77% | Percent of Control (ABL1(F317I)-nonphosphorylated): 30% | Percent of Control (ABL1(F317I)-phosphorylated): 67% | Percent of Control (ABL1(F317L)-nonphosphorylated): 25% | Percent of Control (ABL1(F317L)-phosphorylated): 49% | Percent of Control (ABL1(H396P)-nonphosphorylated): 18% | Percent of Control (ABL1(Q252H)-nonphosphorylated): 6.4% | Percent of Control (ABL1(Q252H)-phosphorylated): 67% | Percent of Control (ABL1(Y253F)-phosphorylated): 49% | Percent of Control (ABL1-nonphosphorylated): 9% | Percent of Control (ABL2): 43% | Percent of Control (ASK2 (MAP3K6)): 54% | Percent of Control (BLK): 0.1% | Percent of Control (BMX): 38% | Percent of Control (BRAF(V600E)): 59% | Percent of Control (BRK (PTK6)): 1.4% | Percent of Control (BTK): 0% | Percent of Control (CDK2): 66% | Percent of Control (CSK): 2.4% | Percent of Control (CSNK1E): 44% | Percent of Control (CTK (MATK)): 66% | Percent of Control (EGFR(E746-A750del)): 5.1% | Percent of Control (EGFR(G719C)): 0.35% | Percent of Control (EGFR(G719S)): 0.45% | Percent of Control (EGFR(L747-E749del, A750P)): 0.3% | Percent of Control (EGFR(L747-S752del, P753S)): 12% | Percent of Control (EGFR(L747-T751del,Sins)): 1.4% | Percent of Control (EGFR(L858R)): 1.4% | Percent of Control (EGFR(L858R,T790M)): 6.9% | Percent of Control (EGFR(L861Q)): 0.1% | Percent of Control (EGFR(S752-I759del)): 0% | Percent of Control (EGFR(T790M)): 0.15% | Percent of Control (EGFR): 0% | Percent of Control (EPHB6): 8.6% | Percent of Control (ERBB2): 0% | Percent of Control (ERBB3): 0% | Percent of Control (ERBB4): 0% | Percent of Control (ERN1): 38% | Percent of Control (FGFR1): 42% | Percent of Control (FGFR2): 42% | Percent of Control (FGFR3(G697C)): 35% | Percent of Control (FGFR3): 45% | Percent of Control (FGR): 10% | Percent of Control (FLT3(D835H)): 18% | Percent of Control (FLT3(D835V)): 1.9% | Percent of Control (FLT3(D835Y)): 44% | Percent of Control (FLT3(ITD)): 55% | Percent of Control (FLT3(ITD,D835V)): 58% | Percent of Control (FLT3(K663Q)): 38% | Percent of Control (FLT3(N841I)): 31% | Percent of Control (FLT3(R834Q)): 54% | Percent of Control (FLT3): 26% | Percent of Control (FLT4): 38% | Percent of Control (FRK): 11% | Percent of Control (FYN): 5.3% | Percent of Control (HCK): 0.3% | Percent of Control (ITK): 6.8% | Percent of Control (KIT(A829P)): 21% | Percent of Control (KIT(L576P)): 42% | Percent of Control (KIT(V559D)): 31% | Percent of Control (KIT): 57% | Percent of Control (LATS2): 66% | Percent of Control (LCK): 0.2% | Percent of Control (LIMK1): 41% | Percent of Control (LOK (STK10)): 41% | Percent of Control (LZK (MAP3K13)): 58% | Percent of Control (MAP3K2): 54% | Percent of Control (MAP3K15): 53% | Percent of Control (MEK1 (MAP2K1)): 14% | Percent of Control (MEK2 (MAP2K2)): 21% | Percent of Control (MEK5 (MAP2K5)): 0.8% | Percent of Control (MET(M1250T)): 56% | Percent of Control (MKK7 (MAP2K7)): 0.7% | Percent of Control (MKNK2): 50% | Percent of Control (NDR2 (STK38L)): 48% | Percent of Control (PDGFRA): 48% | Percent of Control (PDGFRB): 35% | Percent of Control (RET(M918T)): 14% | Percent of Control (RET): 9.3% | Percent of Control (RIPK2): 3.7% | Percent of Control (RIPK5 (DSTYK)): 15% | Percent of Control (SNARK (NUAK2)): 68% | Percent of Control (SRC): 3.2% | Percent of Control (SRMS): 0% | Percent of Control (SRPK1): 54% | Percent of Control (STK35): 55% | Percent of Control (STK36): 60% | Percent of Control (TEC): 1.9% | Percent of Control (TIE2 (TEK)): 58% | Percent of Control (TNK1): 23% | Percent of Control (TNK2): 35% | Percent of Control (TNNI3K): 53% | Percent of Control (TRKA (NTRK1)): 67% | Percent of Control (TRPM6): 54% | Percent of Control (TTK): 40% | Percent of Control (TXK): 3.8% | Percent of Control (VEGFR2 (KDR)): 59% | Percent of Control (WNK2): 65% | Percent of Control (YANK2 (STK32B)): 49% | Percent of Control (YES (YES1)): 2.6% | Percent of Control (ZAK): 38%
